The values below come from PubChem BioAssay AID1259407 (Chemical Carcinogenesis Research Information System (CCRIS), 2018).

SMILES strings stand for the structures. The source made the active and inactive calls. No rule for the calls is given here.

This series has as its system CCRIS mutagenicity, Ames/micronucleus/aberration tests. Description: CCRIS mutagenicity studies.
[1] abbreviates: Test System: AMES SALMONELLA TYPHIMURIUM, Strain/Indicator: TA97, Metabolic Activation: NONE, Method: PREINCUBATION
[2] abbreviates: Test System: AMES SALMONELLA TYPHIMURIUM, Strain/Indicator: TA98, Metabolic Activation: NONE, Method: PREINCUBATION
Setting [3] is: Test System: AMES SALMONELLA TYPHIMURIUM, Strain/Indicator: TA98, Metabolic Activation: NONE, Method: STANDARD PLATE.
The mark [4] stands for this setting: Test System: AMES SALMONELLA TYPHIMURIUM, Strain/Indicator: TA100, Metabolic Activation: NONE, Method: PREINCUBATION
Setting [5] is: Test System: AMES SALMONELLA TYPHIMURIUM, Strain/Indicator: TA100, Metabolic Activation: NONE, Method: STANDARD PLATE.

In the case of `CCOP(=S)(OCC)Oc1cc(C)nc(C(C)C)n1`, the mutagenic call reads like this: (Test System: AMES SALMONELLA TYPHIMURIUM, Strain/Indicator: TA97, Metabolic Activation: HAMSTER, LIVER, S-9, AROCLOR 1254 (10 OR 30%), Method: PREINCUBATION) “inactive; negative”; under setting [1], “inactive; negative”; (Test System: AMES SALMONELLA TYPHIMURIUM, Strain/Indicator: TA97, Metabolic Activation: RAT, LIVER, S-9, AROCLOR 1254 (10 OR 30%), Method: PREINCUBATION) “inactive; negative”; (Test System: AMES SALMONELLA TYPHIMURIUM, Strain/Indicator: TA98, Metabolic Activation: HAMSTER, LIVER, S-9, AROCLOR 1254 (10 OR 30%), Method: PREINCUBATION) “inactive; negative”; under setting [2], “inactive; negative”; under setting [3], “inactive; negative”. The mutagenic call was “inactive; negative” (Test System: AMES SALMONELLA TYPHIMURIUM, Strain/Indicator: TA98, Metabolic Activation: RAT, LIVER, S-9, AROCLOR 1254 (10 OR 30%), Method: PREINCUBATION); “inactive; negative” (Test System: AMES SALMONELLA TYPHIMURIUM, Strain/Indicator: TA98, Metabolic Activation: S-9, NADPH GENERATING SYSTEM, Method: STANDARD PLATE); “inactive; negative” (Test System: AMES SALMONELLA TYPHIMURIUM, Strain/Indicator: TA100, Metabolic Activation: HAMSTER, LIVER, S-9, AROCLOR 1254 (10 OR 30%), Method: PREINCUBATION); “inactive; negative” under setting [4]; “inactive; negative” (Test System: AMES SALMONELLA TYPHIMURIUM, Strain/Indicator: TA100, Metabolic Activation: RAT, LIVER, S-9, AROCLOR 1254 (10 OR 30%), Method: PREINCUBATION); “inactive; negative” (Test System: AMES SALMONELLA TYPHIMURIUM, Strain/Indicator: TA102, Metabolic Activation: NONE, Method: STANDARD PLATE). Besides, the mutagenic call by setting is: (Test System: AMES SALMONELLA TYPHIMURIUM, Strain/Indicator: TA102, Metabolic Activation: S-9, NADPH GENERATING SYSTEM, Method: STANDARD PLATE) “inactive; negative”; (Test System: AMES SALMONELLA TYPHIMURIUM, Strain/Indicator: TA1535, Metabolic Activation: HAMSTER, LIVER, S-9, AROCLOR 1254 (10 OR 30%), Method: PREINCUBATION) “inactive; negative”; (Test System: AMES SALMONELLA TYPHIMURIUM, Strain/Indicator: TA1535, Metabolic Activation: NONE, Method: PREINCUBATION) “inactive; negative”; (Test System: AMES SALMONELLA TYPHIMURIUM, Strain/Indicator: TA1535, Metabolic Activation: NONE, Method: STANDARD PLATE) “inactive; negative”; (Test System: AMES SALMONELLA TYPHIMURIUM, Strain/Indicator: TA1535, Metabolic Activation: RAT, LIVER, S-9, AROCLOR 1254 (10 OR 30%), Method: PREINCUBATION) “inactive; negative”; (Test System: AMES SALMONELLA TYPHIMURIUM, Strain/Indicator: TA1535, Metabolic Activation: S-9, NADPH GENERATING SYSTEM, Method: STANDARD PLATE) “inactive; negative”. The mutagenic call by setting is: (Test System: AMES SALMONELLA TYPHIMURIUM, Strain/Indicator: TA1537, Metabolic Activation: NONE, Method: STANDARD PLATE) “inactive; negative”; (Test System: AMES SALMONELLA TYPHIMURIUM, Strain/Indicator: TA1537, Metabolic Activation: S-9, NADPH GENERATING SYSTEM, Method: STANDARD PLATE) “inactive; negative”; (Test System: E. COLI, Strain/Indicator: WP2 UVRA, Metabolic Activation: HAMSTER, LIVER, S-9, AROCLOR 1254, Method: STANDARD PLATE) “inactive; negative”; (Test System: E. COLI, Strain/Indicator: WP2 UVRA, Metabolic Activation: HAMSTER, LIVER, S-9, Method: STANDARD PLATE) “inactive; negative”; (Test System: E. COLI, Strain/Indicator: WP2 UVRA, Metabolic Activation: MOUSE, LIVER, S-9, AROCLOR 1254, Method: STANDARD PLATE) “inactive; negative”; (Test System: E. COLI, Strain/Indicator: WP2 UVRA, Metabolic Activation: MOUSE, LIVER, S-9, Method: STANDARD PLATE) “inactive; negative”. Besides, the mutagenic call (Test System: E. COLI, Strain/Indicator: WP2 UVRA, Metabolic Activation: NONE, Method: STANDARD PLATE) was “inactive; negative”; the mutagenic call (Test System: E. COLI, Strain/Indicator: WP2 UVRA, Metabolic Activation: RAT, LIVER, S-9, AROCLOR 1254, Method: STANDARD PLATE) is “inactive; negative”; the mutagenic call (Test System: E. COLI, Strain/Indicator: WP2 UVRA, Metabolic Activation: RAT, LIVER, S-9, Method: STANDARD PLATE) was “inactive; negative”.

On to `CC(=O)O[C@H]1[C@@H]2CC(C)(C)CC2=C(C=O)[C@@]2(C=O)C[C@@]12C`, for which the mutagenic call runs as follows: under setting [3], “inactive; negative”; under setting [5], “inactive; negative”; (Test System: AMES SALMONELLA TYPHIMURIUM, Strain/Indicator: TA2637, Metabolic Activation: NONE, Method: STANDARD PLATE) “inactive; negative”; (Test System: CHINESE HAMSTER V-79, Strain/Indicator: V-79/6-THIOGUANINE (HGPRT), Metabolic Activation: NONE) “inactive; negative”.

In the case of `COc1cc(NCCCCCNC(C)C)c2ncccc2c1`, the mutagenic call is, setting by setting: under setting [1], “inactive; negative”; (Test System: AMES SALMONELLA TYPHIMURIUM, Strain/Indicator: TA97, Metabolic Activation: RAT, LIVER, S-9, PHENOBARBITAL AND BETA-NAPHTHOFLAVONE, Method: PREINCUBATION) “active; positive”; under setting [2], “inactive; negative”; (Test System: AMES SALMONELLA TYPHIMURIUM, Strain/Indicator: TA98, Metabolic Activation: RAT, LIVER, S-9, PHENOBARBITAL AND BETA-NAPHTHOFLAVONE, Method: PREINCUBATION) “inactive; negative”; under setting [4], “inactive; negative”; (Test System: AMES SALMONELLA TYPHIMURIUM, Strain/Indicator: TA100, Metabolic Activation: RAT, LIVER, S-9, PHENOBARBITAL AND BETA-NAPHTHOFLAVONE, Method: PREINCUBATION) “inactive; negative”. Also, the mutagenic call runs as follows: (Test System: AMES SALMONELLA TYPHIMURIUM, Strain/Indicator: TA102, Metabolic Activation: NONE, Method: PREINCUBATION) “inactive; negative”; (Test System: AMES SALMONELLA TYPHIMURIUM, Strain/Indicator: TA102, Metabolic Activation: RAT, LIVER, S-9, PHENOBARBITAL AND BETA-NAPHTHOFLAVONE, Method: PREINCUBATION) “inactive; negative”; (Test System: E.COLI, Strain/Indicator: WP2UVRA/PKM101, Metabolic Activation: NONE, Method: PREINCUBATION) “inactive; negative”; (Test System: E.COLI, Strain/Indicator: WP2UVRA/PKM101, Metabolic Activation: RAT LIVER S-9, PHENOBARBITAL AND 5,6-BENZOFLAVONE, Method: PREINCUBATION) “inactive; negative”.

With `O=[N+]([O-])c1ccc2ccc3c4c(cc5ccc1c2c53)CCC=C4`, the mutagenic call runs as follows: (Test System: AMES SALMONELLA TYPHIMURIUM, Strain/Indicator: TA98(1,8-DNP6), Metabolic Activation: NONE, Method: STANDARD PLATE) “active; positive”; (Test System: AMES SALMONELLA TYPHIMURIUM, Strain/Indicator: TA98(1,8-DNP6), Metabolic Activation: RAT, LIVER, S-9, AROCLOR 1254, Method: STANDARD PLATE) “active; positive”; (Test System: AMES SALMONELLA TYPHIMURIUM, Strain/Indicator: TA98(NR), Metabolic Activation: NONE, Method: STANDARD PLATE) “active; positive”; (Test System: AMES SALMONELLA TYPHIMURIUM, Strain/Indicator: TA98(NR), Metabolic Activation: RAT, LIVER, S-9, AROCLOR 1254, Method: STANDARD PLATE) “active; positive”; under setting [3], “active; positive”; (Test System: AMES SALMONELLA TYPHIMURIUM, Strain/Indicator: TA98, Metabolic Activation: RAT, LIVER, S-9, AROCLOR 1254, Method: STANDARD PLATE) “active; positive”. Besides, the mutagenic call is, setting by setting: under setting [5], “inactive; negative”; (Test System: AMES SALMONELLA TYPHIMURIUM, Strain/Indicator: TA100, Metabolic Activation: RAT, LIVER, S-9, AROCLOR 1254, Method: STANDARD PLATE) “active; positive”.

For the molecule `N[C@H](CSSC[C@@H](N)C(=O)O)C(=O)O`, the mutagenic call (Test System: AMES SALMONELLA TYPHIMURIUM, Strain/Indicator: TA98, Metabolic Activation: RAT LIVER S-9, CHLOROPHENE, Method: STANDARD PLATE (COMPOUND HEATED AT 250 DEGREES CELSIUS FOR 20 MIN)) was “active; positive”.
